A short description of data set [1]: Inhibition of TGFbetaR1 in mink Mv1Lu cells assessed as TGFbeta-stimulated PSMAD2 phosphorylation preincubated for 1 hr followed by TGFbeta addition measured after 15 mins. Type of data set: cell-based, Neovison vison. Conditions: Neogale vison.
Data set [2] is described as follows: Metabolic stability in rat liver microsomes assessed as compound remaining by LC-MS/MS analysis. The class given is ADME, microsome.
A short description of data set [3]: Metabolic stability in human liver microsomes assessed as compound remaining by LC-MS/MS analysis. Type of data set: ADME, microsome. On the technique in general: Microsomes from liver hold many membrane-bound enzymes, among them those of drug oxidation.
Data set [4] in a line: Metabolic stability in mouse liver microsomes assessed as compound remaining by LC-MS/MS analysis. The class given is ADME, microsome.
The nature of data set [5]: Solubility of the compound in DMSO. Type of data set: physicochemical.
Another data set addresses TGF-beta receptor type-2 (Homo sapiens, UniProt P37173). As to the kind of experiment: Inhibition of wild type His-tagged TGFbetaR2 (unknown origin) after 1 hr by HTRF assay. (TR-FRET usually uses a lanthanide donor and a delayed reading to cut background.)
A further data set deals with Mus musculus. As to the kind of experiment: In vivo inhibition of TGFbetaR1 in po dosed BALB/c mouse implanted with mouse 4T1 cells assessed as reduction in phosphorylated PSMAD levels after 7 hrs. Type of data set: functional, organism-based.

pIC50: −log10 of the molar value. Where only a bound is given, the exact number is not on record here.

Chain of TGF-beta receptor type-2 (P37173 whole entry): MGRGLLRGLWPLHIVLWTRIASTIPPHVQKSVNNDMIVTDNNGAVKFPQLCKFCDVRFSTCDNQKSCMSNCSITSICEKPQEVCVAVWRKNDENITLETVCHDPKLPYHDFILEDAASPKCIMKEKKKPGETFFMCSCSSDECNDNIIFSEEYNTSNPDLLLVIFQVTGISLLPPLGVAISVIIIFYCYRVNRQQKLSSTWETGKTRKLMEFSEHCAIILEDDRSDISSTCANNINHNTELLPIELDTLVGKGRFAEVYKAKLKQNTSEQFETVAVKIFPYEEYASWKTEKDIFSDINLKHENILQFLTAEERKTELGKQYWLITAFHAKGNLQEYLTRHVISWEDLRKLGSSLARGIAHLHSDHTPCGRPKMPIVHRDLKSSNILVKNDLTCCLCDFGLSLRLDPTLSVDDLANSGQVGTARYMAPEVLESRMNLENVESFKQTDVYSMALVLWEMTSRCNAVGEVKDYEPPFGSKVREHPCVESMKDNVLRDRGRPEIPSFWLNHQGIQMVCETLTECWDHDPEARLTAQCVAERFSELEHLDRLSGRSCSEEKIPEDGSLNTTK

As for `N[C@H]1CCN(Cc2ccn3nc(-c4ccccn4)nc(Nc4ccncc4F)c23)C[C@@H]1O`, in data set [1], the pIC50 (as a rule, the negative decadic logarithm of the IC50, by convention in mol/L) is 6.41. For the same compound, the values for the Stability in data set [2], in data set [3] and in data set [4] were 90%, 85% and 82%, respectively.
The matching figures for `Cc1cccc(-c2nc(Nc3c(F)cncc3F)c3cccn3n2)n1`: 5.92, 39%, 15% and 7%.
`Cc1cccc(-c2nc(Nc3ccncc3)c3cccn3n2)n1`: the solubility entry in data set [5] is listed as “Soluble”. Moreover, in data set [1], the pIC50 is 7.00. For the same compound, the Stability stood at 28% in data set [2], 11% in data set [3] and 1% in data set [4].
For the compound `Fc1cnccc1Nc1nc(-c2cccc(C(F)(F)F)n2)nc2[nH]ccc12`, the pIC50 in data set [1] is 7.33. The Stability is given as 36% in data set [3] and 28% in data set [4].
Regarding `O=C(CN1CCN(CCO)CC1)Nc1cc(Nc2nc(-c3cccc(C(F)(F)F)n3)nn3cccc23)ccn1`, in data set [1], the negative-log IC50 (pIC50) was 6.66. Moreover, the values for the Stability in data set [3] and in data set [4] were 70% and 77%, respectively.
Take `CC(=O)Nc1cc(Nc2nc(-c3cccc(C(F)(F)F)n3)nn3cccc23)c(F)cn1`: the Stability is 68% in data set [2], 78% in data set [3] and 66% in data set [4].
On to `Cc1cccc(-c2nc(Nc3ccncc3F)c3nc[nH]c3n2)n1`, for which the pIC50 in data set [1] is 6.82. In addition, the results for the Stability in data set [2], in data set [3] and in data set [4] were 47%, 38% and 4%, respectively.
For `Cc1cccc(-c2nn3c(c2-c2ccnc4ccc(C(N)=O)cc24)CCC3)n1` [GALUNISERTIB], on TGF-beta receptor type-2, the pIC50 was 5.89.
For the compound `CC(=O)Nc1cc(Nc2nc(-c3cccc(C(F)(F)F)n3)nc3[nH]ccc23)ccn1`, the negative logarithm of the IC50 (pIC50) in data set [1] is 7.37. Also, the Stability worked out at 80% in data set [2], 81% in data set [3] and 27% in data set [4].
The matching figures for `FC(F)(F)c1cccc(-c2nc(Nc3ccncc3)c3cccn3n2)n1`: 6.15, 48%, 24% and 13%.
As for `c1ccc(-c2nn3c(c2-c2ccnc4cc(OCCN5CCOCC5)ccc24)CCC3)nc1`, the negative-log IC50 (pIC50) in data set [1] was 6.12; against TGF-beta receptor type-2, 6.72. In addition, the Stability came out at 46% in data set [2], 58% in data set [3] and 36% in data set [4].
`Cc1cccc(-c2nc(Nc3ccnc4ccccc34)c3cccn3n2)n1`: the solubility entry in data set [5] was “Insoluble”.
As to `CC(=O)Nc1cc(Nc2nc(-c3cccc(C(F)(F)F)n3)nn3cccc23)ccn1`, the pIC50 in data set [1] was 6.74. Besides, the Stability in data set [2] amounted to 35%; in data set [3], 75%; in data set [4], 49%. The Activity entry in the data set with Mus musculus is “Dose-dependent effect”.
On to `Cc1cccc(-c2nc(Nc3ccncc3F)c3cc[nH]c3n2)n1`, for which the pIC50 in data set [1] is 7.62. Further, the Stability in data set [2] is recorded as 38%; in data set [3] it was 25%; in data set [4] it was 2%.
The like results for `CC(=O)Nc1cc(Nc2nc(-c3cccc(C(F)(F)F)n3)nc3[nH]cnc23)ccn1` were, in that order, 6.89, 77%, 85% and 59%.
Take `Fc1cnccc1Nc1nc(-c2ccccn2)nn2cccc12`: the pIC50 in data set [1] is 6.30. For the same compound, the Stability in data set [2] is 54%; in data set [3] it was 54%; in data set [4] it was 19%.
For `Cc1cccc(-c2nc(Nc3ccncc3C(=O)NC(C)C)c3cccn3n2)n1`, in data set [1], the negative-log IC50 (pIC50) is under 5.00. The figures for the Stability in data set [2], in data set [3] and in data set [4] were 67%, 65% and 26%, respectively.
The like results for `Cc1cccc(-c2nc(Nc3ccncc3F)c3cccn3n2)n1` were, in that order, 6.74, 35%, 11% and 6%.
The matching figures for `N[C@@H]1CCN(Cc2ccn3nc(-c4ccccn4)nc(Nc4ccncc4F)c23)C[C@H]1O`: 6.51, 92%, 93% and 100%.
With `N[C@H]1CC[C@@H](NCc2ccn3nc(-c4ccccn4)nc(Nc4ccncc4F)c23)CC1`, the negative-log IC50 (pIC50) in data set [1] is 7.12. The Stability in data set [2] is on record as 72%; in data set [3] it was 86%; in data set [4], 48%.
The matching figures for `COc1cccc(-c2nc(Nc3ccncc3)c3cccn3n2)n1`: 5.41, 36%, 12% and 2%.
The matching figures for `c1ccc(-c2nc(Nc3ccncc3)c3cccn3n2)nc1`: 6.46, 33%, 33% and 1%.

The record behind these values is ChEMBL document CHEMBL4184264, “Heterobicyclic inhibitors of transforming growth factor beta receptor I (TGFβRI)” (Bioorg Med Chem, 2018).
